Measured values: patent publication US20130011378A1, “Stable formulations of a hyaluronan-degrading enzyme” (priority 2011, published 2013)
Read-outs that look alike come from different tables or passages of the source. Blank lines part the entries; values can stand above or below the compound they belong to.

Columns and labels:
rHuPH20 [1] = biological target: T1, rHuPH20 (Homo sapiens, UniProt P38567); experiment: Determination of hyaluronidase activity of rHuPH20, turbidimetric assay (Example 2, variant not specified); assay type: biochemical; details: for Effect on rHuPH20 enzymatic activity: stabilizer screening in rHuPH20/insulin formulation, semi-quantitative in comparison with NaCl, samples incubated at 30° C. for about one week
T1 construct: made in house; host or cells: CHO cells (DG44 CHO, HZ24 plasmid, clone 2B2)
T1 sequence (P38567 36-482): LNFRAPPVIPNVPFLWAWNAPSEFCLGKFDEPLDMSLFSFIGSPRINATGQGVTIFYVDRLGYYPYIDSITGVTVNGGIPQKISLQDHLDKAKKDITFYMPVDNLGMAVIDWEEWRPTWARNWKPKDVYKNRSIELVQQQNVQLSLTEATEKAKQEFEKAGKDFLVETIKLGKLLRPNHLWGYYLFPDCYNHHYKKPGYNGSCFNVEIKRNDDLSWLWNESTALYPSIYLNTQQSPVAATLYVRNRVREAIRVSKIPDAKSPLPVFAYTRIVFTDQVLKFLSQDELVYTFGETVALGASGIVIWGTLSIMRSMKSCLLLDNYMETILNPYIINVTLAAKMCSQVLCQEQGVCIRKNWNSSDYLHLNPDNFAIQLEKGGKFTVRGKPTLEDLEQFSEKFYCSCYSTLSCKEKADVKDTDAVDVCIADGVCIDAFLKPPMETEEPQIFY

[2] = Non-denaturing SEC: percent main peak / aggregates of insulin and rHuPH20; assay type: physicochemical
Protocol: Reference samples were stored in HPLC vials at 10° C. prior to use.
Samples were stored in HPLC vials at 10° C. prior to use, for up to 3 days.
0.5× Phosphate Buffered Saline (PBS) solution was prepared by diluting 10×PBS with HPLC grade water.
Insulin percent purity was expressed as percentage of the insulin main peak versus the total insulin peaks. The target specification is less than 2% high molecular weight protein, i.e., insulin aggregates.
SEC was performed using the following conditions: 1× Phosphate Buffered Saline (PBS), a Toso BioScience G2000 SWXL column, and a flow rate set at 1 mL/min. Data were collected as described above and means were reported and entered into the design table following the sample sequence provided by the DOE software.

[3] = RP-HPLC: insulin apparent solubility / percent recovery
Protocol: Apparent solubility was measured as the percent insulin recovery as compared to the initial formulations/conditions.
Samples were prepared by withdrawing 100 μL from each vial at every time point and centrifuging prior to loading. Samples were stored in an autosampler at 4° C. prior to use, and were considered stable for 3 days after preparation. All samples were tested in duplicate.
For insulin, 20 μL was injected for each HPLC run.
To determine the apparent solubility, the peak area of insulin/insulin analog main peak and desamido peak were integrated and combined together to calculate the percentage relative to the standards. […] The data were processed using Design-Expert® 7.0 (StatEase) and the “historical data” feature. Insulin percent purity was expressed as the percent of main insulin versus all insulin species.

rHuPH20 [4] = biological target: T1, rHuPH20; experiment: RP-HPLC: rHuPH20 oxidation peaks (ox-1, ox-2); assay type: physicochemical; details: 0.02% surfactant, 30° C., 72 hours
Source text: The stability of hyaluronan degrading enzymes in a composition, such as in the co-formulations provided herein, also can be assessed using other methods and assays known in the art. […] Percent recovery is the relative percentage of the hyaluronidase in the co-formulation over time and at various storage conditions, as compared to a reference sample. […] An increase in particle size and a decrease in the melting temperature indicates denaturation and subsequent aggregation of the hyaluronidase. […] Other methods known to one of skill in the art that can be used to determine the stability of the hyaluronidase in the co-formulations provided herein, include polyacrylamide gel electrophoresis (PAGE), immunoblotting, nuclear magnetic resonance (NMR) spectroscopy, mass spectrometry, circular dichroism (CD) and dye-based fluorescence assays.
The formulations varied in the surfactant and surfactant concentration and the buffer (either histidine or phosphate).
Methionine oxidation can be prevented by addition of free methionine as a scavenger to react with potential oxidative compounds.

[5] = t = 0, 100 μg/mL rHuPH20, pH 7.3, 140 mM NaCl, 0.01% polysorbate 80, preservative levels of Table 21, in U/mL
[6] = 35° C., Table 22 concentrations

Compound: C[CH2][Hg][S]c1ccccc1C(=O)[O-].[Na+] [Thimerosal]
rHuPH20 activity (rHuPH20 [1]; 24 hours, 25° C., in U/mL): 8990 | rHuPH20 activity (rHuPH20 [1]; 5 days, 25° C., in U/mL): 8960 | rHuPH20 activity (rHuPH20 [1]; 6 days, 35° C., in U/mL): 10070 | rHuPH20 activity (rHuPH20 [1]; [5]): 10,290 | % Main rHuPH20 peak by non-denaturing SEC ([2]; 4° C., 1 day): 98.59% | % Main rHuPH20 peak by non-denaturing SEC ([2]; 35° C., 1 day): 98.31%

Compound: C[N+](C)(C)[O-] [Trimethylamine oxide (TMAO)]
Effect on rHuPH20 enzymatic activity (rHuPH20 [1]): No effect | Effect on insulin solubility ([3]; stabilizer screening in rHuPH20/insulin formulation, semi-quantitative in comparison with NaCl, RP-HPLC, samples stored at 5° C.): No effect

Compound: Cc1cccc(O)c1 [m-cresol]
rHuPH20 activity (rHuPH20 [1]; 48 hours, 4° C., preservative levels of Table 22, in U/mL): 10,950 | rHuPH20 activity (rHuPH20 [1]; 48 hours, 35° C., preservative levels of Table 22): <LOQ | Enzymatic Activity of rHuPH20 (rHuPH20 [1]; preservative 0.05%, 1 Month, 25° C., insulin/rHuPH20 formulation pH 7.1, 140 mM NaCl): 2103 U/mL | Enzymatic Activity of rHuPH20 (rHuPH20 [1]; preservative 0.05%, 1 Week, 35° C.): 2019 U/mL | Enzymatic Activity of rHuPH20 (rHuPH20 [1]; preservative 0.05%, 2 Weeks, 35° C.): 1955 U/mL | Enzymatic Activity of rHuPH20 (rHuPH20 [1]; preservative 0.1%, 1 Month, 25° C.): 2188 U/mL | Enzymatic Activity of rHuPH20 (rHuPH20 [1]; preservative 0.1%, 1 Week, 35° C.): 2147 U/mL | Enzymatic Activity of rHuPH20 (rHuPH20 [1]; preservative 0.1%, 2 Weeks, 35° C.): 2069 U/mL | Enzymatic Activity of rHuPH20 (rHuPH20 [1]; preservative 0.2%, 1 Month, 25° C.): 2013 U/mL | Enzymatic Activity of rHuPH20 (rHuPH20 [1]; preservative 0.2%, 1 Week, 35° C.): 466 U/mL | Enzymatic Activity of rHuPH20 (rHuPH20 [1]; preservative 0.2%, 2 Weeks, 35° C.): 185 U/mL | Enzymatic Activity of rHuPH20 (rHuPH20 [1]; preservative 0.4%, 1 Month, 25° C.): <LOD | Enzymatic Activity of rHuPH20 (rHuPH20 [1]; preservative 0.4%, 1 Week, 35° C.): <LOD | Enzymatic Activity of rHuPH20 (rHuPH20 [1]; preservative 0.4%, 2 Weeks, 35° C.): <LOD | % Main rHuPH20 peak by non-denaturing SEC ([2]; 4° C., Table 22 concentrations): 100.00% | % Main rHuPH20 peak by non-denaturing SEC [2, 6]: 0.834%

Compound: COC(=O)c1ccc(O)cc1 [methylparaben]
Enzymatic Activity of rHuPH20 (rHuPH20 [1]; preservative 0.3%, 1 Week, 35° C.): 730 U/mL | % Main rHuPH20 peak by non-denaturing SEC ([2]; 4° C., Table 22 concentrations): 100.00% | % Main rHuPH20 peak by non-denaturing SEC [2, 6]: 96.91%

Compound: Benzalkonium Chloride
rHuPH20 activity (rHuPH20 [1]; 24 hours, 25° C., in U/mL): 10750 | rHuPH20 activity (rHuPH20 [1]; 5 days, 25° C., in U/mL): 2710 | rHuPH20 activity (rHuPH20 [1]; 6 days, 35° C.): <LOQ | rHuPH20 activity (rHuPH20 [1]; [5]): 11,740 | % Main rHuPH20 peak by non-denaturing SEC ([2]; 4° C., 1 day): 99.64% | % Main rHuPH20 peak by non-denaturing SEC ([2]; 35° C., 1 day): <LOD

The remaining lines, values ahead:

Effect on rHuPH20 enzymatic activity (rHuPH20 [1]): No effect
Compound: OC[C@H]1O[C@@](CO)(O[C@H]2O[C@H](CO)[C@@H](O)[C@H](O)[C@H]2O)[C@@H](O)[C@@H]1O [Sucrose]

Effect on rHuPH20 enzymatic activity (rHuPH20 [1]): No effect
Compound: OC[C@H]1O[C@H](O[C@H]2O[C@H](CO)[C@@H](O)[C@H](O)[C@H]2O)[C@H](O)[C@@H](O)[C@@H]1O [Trehalose]

Effect on rHuPH20 enzymatic activity (rHuPH20 [1]): No effect | Effect on insulin solubility [3]: No/slight effect;
Compound: OCC(O)CO [glycerol]

Effect on rHuPH20 enzymatic activity (rHuPH20 [1]): No effect
Compound: OC[C@@H](O)[C@@H](O)[C@H](O)[C@@H](O)CO [sorbitol]

% of Oxidation Peak 1 of rHuPH20 (rHuPH20 [4]; Methionine 0 mM): 4.01% | % of Oxidation Peak 1 of rHuPH20 (rHuPH20 [4]; Methionine 2 mM): 3.43% | % of Oxidation Peak 1 of rHuPH20 (rHuPH20 [4]; Methionine 10 mM): 3.37% | % of Oxidation Peak 1 of rHuPH20 (rHuPH20 [4]; Methionine 50 mM): 3.38%
Compound: Polysorbate 20

% of Oxidation Peak 1 of rHuPH20 (rHuPH20 [4]; Methionine 0 mM): 4.01% | % of Oxidation Peak 1 of rHuPH20 (rHuPH20 [4]; Methionine 2 mM): 3.50% | % of Oxidation Peak 1 of rHuPH20 (rHuPH20 [4]; Methionine 10 mM): 3.44% | % of Oxidation Peak 1 of rHuPH20 (rHuPH20 [4]; Methionine 50 mM): 3.34%
Compound: Polysorbate 80

% of the original activity retained (rHuPH20 [1]; 1 week at 30° C., pH 7.1, 1 mg/mL HA, 75 mM NaCl): 57% | % of the original rHuPH20 remained (rHuPH20 [1]; 1 week at 30° C., pH 7.1, 5.5 mg/mL HA, 100 mM NaCl): 68% | % of the original activity retained (rHuPH20 [1]; 1 week at 30° C., pH 7.1, 10 mg/mL HA): 85% | rHuPH20 activity (rHuPH20 [1]; 1 week at 30° C., pH 7.1, 10 mg/mL HA, from 600 U/mL): 510 U/mL | rHuPH20 activity (rHuPH20 [1]; rHuPH20/insulin co-formulation, 1 week at 30° C., pH 7.1, 1 mg/mL HA, 75 mM NaCl, from 600 U/mL): 341 U/mL | effect on rHuPH20 stability in comparison with NaCl (rHuPH20 [1]; stabilizer screening, 30° C. about one week, […] m-cresol, 0.2% phenol): stabilized rHuPH20 more than NaCl
Compound: hyaluronic acid [HA]
